Columns and labels:
Assay in all cases: relative viability (nuclei count vs DMSO), 5 days (fraction); higher = more cells survive
Carboplatin + Olaparib = compound: C1CC(C1)(C(=O)O)C(=O)O.[NH2-].[NH2-].[Pt+2] [Carboplatin] + O=C(c1cc(Cc2n[nH]c(=O)c3ccccc23)ccc1F)N1CCN(C(=O)C2CC2)CC1 [Olaparib] (partner 8 µM)
Outline: (§1)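 The day after seeding in 1536-well plates, lung cancer cell lines were treated by pin tool with a single drug, or with a fixed anchor-drug dose together with five library-drug doses (not always all listed) in √10 steps. After 5 days, a combined fix-and-stain solution (final 0.05% Triton X-100, 1% formaldehyde, 1 ug/ml Hoechst) was added. Nuclei counted on 4× images gave relative viability as treated counts over vehicle counts, reported as the median of duplicate plates.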

GSK126 + Vorinostat = compound: CC[C@H](C)N1C=C(C2=C(C=C(C=C21)C3=CN=C(C=C3)N4CCNCC4)C(=O)NCC5=C(C=C(NC5=O)C)C)C [GSK126] + O=C(CCCCCCC(=O)Nc1ccccc1)NO [Vorinostat] (partner 1 µM)
Outline: as §1

Carboplatin + Vorinostat = compound: C1CC(C1)(C(=O)O)C(=O)O.[NH2-].[NH2-].[Pt+2] [Carboplatin] + O=C(CCCCCCC(=O)Nc1ccccc1)NO [Vorinostat] (partner 1 µM)
Outline: as §1

Carboplatin + AZD7762 = compound: C1CC(C1)(C(=O)O)C(=O)O.[NH2-].[NH2-].[Pt+2] [Carboplatin] + NC(=O)Nc1cc(-c2cccc(F)c2)sc1C(=O)N[C@H]1CCCNC1 [AZD7762] (partner 0.2 µM)
Outline: as §1

NCI-H1437
relative viability (Carboplatin + Olaparib; first compound 0.08 µM): 0.646
relative viability (Carboplatin + Olaparib; first compound 0.253 µM): 0.675
relative viability (Carboplatin + Olaparib; first compound 0.8 µM): 0.578
relative viability (Carboplatin + Olaparib; first compound 2.53 µM): 0.623
relative viability (Carboplatin + Olaparib; first compound 8 µM): 0.594
relative viability (GSK126 + Vorinostat; first compound 0.08 µM): 0.902
relative viability (GSK126 + Vorinostat; first compound 0.253 µM): 0.885
relative viability (GSK126 + Vorinostat; first compound 0.8 µM): 0.774
relative viability (GSK126 + Vorinostat; first compound 2.53 µM): 0.77
relative viability (GSK126 + Vorinostat; first compound 8 µM): 0.763
relative viability (Carboplatin + Vorinostat; first compound 0.08 µM): 0.803
relative viability (Carboplatin + Vorinostat; first compound 0.253 µM): 0.869
relative viability (Carboplatin + Vorinostat; first compound 0.8 µM): 0.728
relative viability (Carboplatin + Vorinostat; first compound 2.53 µM): 0.808
relative viability (Carboplatin + Vorinostat; first compound 8 µM): 0.598
relative viability (Carboplatin + AZD7762; first compound 0.08 µM): 1.22
relative viability (Carboplatin + AZD7762; first compound 0.253 µM): 1.09
relative viability (Carboplatin + AZD7762; first compound 0.8 µM): 0.927
relative viability (Carboplatin + AZD7762; first compound 2.53 µM): 0.955
relative viability (Carboplatin + AZD7762; first compound 8 µM): 1.03

NCI-H1975
relative viability (Carboplatin + Olaparib; first compound 0.08 µM): 0.961
relative viability (Carboplatin + Olaparib; first compound 0.253 µM): 0.79
relative viability (Carboplatin + Olaparib; first compound 0.8 µM): 0.735
relative viability (Carboplatin + Olaparib; first compound 2.53 µM): 0.747
relative viability (Carboplatin + Olaparib; first compound 8 µM): 0.747
relative viability (GSK126 + Vorinostat; first compound 0.08 µM): 0.708
relative viability (GSK126 + Vorinostat; first compound 0.253 µM): 0.676
relative viability (GSK126 + Vorinostat; first compound 0.8 µM): 0.741
relative viability (GSK126 + Vorinostat; first compound 2.53 µM): 0.645
relative viability (GSK126 + Vorinostat; first compound 8 µM): 0.67
relative viability (Carboplatin + Vorinostat; first compound 0.08 µM): 0.783
relative viability (Carboplatin + Vorinostat; first compound 0.253 µM): 0.711
relative viability (Carboplatin + Vorinostat; first compound 0.8 µM): 0.579
relative viability (Carboplatin + Vorinostat; first compound 2.53 µM): 0.534
relative viability (Carboplatin + Vorinostat; first compound 8 µM): 0.656
relative viability (Carboplatin + AZD7762; first compound 0.08 µM): 0.868
relative viability (Carboplatin + AZD7762; first compound 0.253 µM): 0.746
relative viability (Carboplatin + AZD7762; first compound 0.8 µM): 0.679
relative viability (Carboplatin + AZD7762; first compound 2.53 µM): 0.742
relative viability (Carboplatin + AZD7762; first compound 8 µM): 0.691

BEN
relative viability (Carboplatin + Olaparib; first compound 0.08 µM): 1.21
relative viability (Carboplatin + Olaparib; first compound 0.253 µM): 1.12
relative viability (Carboplatin + Olaparib; first compound 0.8 µM): 1.11
relative viability (Carboplatin + Olaparib; first compound 2.53 µM): 0.837
relative viability (Carboplatin + Olaparib; first compound 8 µM): 0.596
relative viability (GSK126 + Vorinostat; first compound 0.08 µM): 0.658
relative viability (GSK126 + Vorinostat; first compound 0.253 µM): 0.528
relative viability (GSK126 + Vorinostat; first compound 0.8 µM): 0.503
relative viability (GSK126 + Vorinostat; first compound 2.53 µM): 0.617
relative viability (GSK126 + Vorinostat; first compound 8 µM): 0.617
relative viability (Carboplatin + Vorinostat; first compound 0.08 µM): 0.658
relative viability (Carboplatin + Vorinostat; first compound 0.253 µM): 0.611
relative viability (Carboplatin + Vorinostat; first compound 0.8 µM): 0.598
relative viability (Carboplatin + Vorinostat; first compound 2.53 µM): 0.625
relative viability (Carboplatin + Vorinostat; first compound 8 µM): 0.581
relative viability (Carboplatin + AZD7762; first compound 0.08 µM): 0.912
relative viability (Carboplatin + AZD7762; first compound 0.253 µM): 0.792
relative viability (Carboplatin + AZD7762; first compound 0.8 µM): 0.725
relative viability (Carboplatin + AZD7762; first compound 2.53 µM): 0.723
relative viability (Carboplatin + AZD7762; first compound 8 µM): 0.818

NCI-H441
relative viability (Carboplatin + Olaparib; first compound 0.08 µM): 0.465
relative viability (Carboplatin + Olaparib; first compound 0.253 µM): 0.497
relative viability (Carboplatin + Olaparib; first compound 0.8 µM): 0.499
relative viability (Carboplatin + Olaparib; first compound 2.53 µM): 0.486
relative viability (Carboplatin + Olaparib; first compound 8 µM): 0.259
relative viability (GSK126 + Vorinostat; first compound 0.08 µM): 1.04
relative viability (GSK126 + Vorinostat; first compound 0.253 µM): 0.59
relative viability (GSK126 + Vorinostat; first compound 0.8 µM): 0.714
relative viability (GSK126 + Vorinostat; first compound 2.53 µM): 0.673
relative viability (GSK126 + Vorinostat; first compound 8 µM): 0.791
relative viability (Carboplatin + Vorinostat; first compound 0.08 µM): 0.865
relative viability (Carboplatin + Vorinostat; first compound 0.253 µM): 0.835
relative viability (Carboplatin + Vorinostat; first compound 0.8 µM): 0.588
relative viability (Carboplatin + Vorinostat; first compound 2.53 µM): 0.785
relative viability (Carboplatin + Vorinostat; first compound 8 µM): 0.369
relative viability (Carboplatin + AZD7762; first compound 0.08 µM): 1.26
relative viability (Carboplatin + AZD7762; first compound 0.253 µM): 1.11
relative viability (Carboplatin + AZD7762; first compound 0.8 µM): 0.954
relative viability (Carboplatin + AZD7762; first compound 2.53 µM): 0.995
relative viability (Carboplatin + AZD7762; first compound 8 µM): 0.804

Reference: the supplement of paper PMC10307832
